From ChEMBL document CHEMBL4613212, “Insights of synthetic analogues of anti-leprosy agents” (Bioorg Med Chem, 2019)
In brackets after ≈: the same amount, converted by molar mass.

Columns and labels:
Mycobacterium leprae [1] = assay: (§1) Inhibition of PGL1 synthesis in Mycobacterium leprae infected Swiss Webster mouse macrophages assessed as decrease in [U-14C]PA incorporation at 2 uM preincubated for 4 days post infection followed by [U-14C]PA addition and measured after 7 days by liquid scintillation counter analysis relative to control; format: functional
Mycobacterium leprae [2] = assay: as §1, with “20” for “2”; format: functional
Staphylococcus aureus = assay: Antimicrobial activity against Staphylococcus aureus assessed as zone of inhibition incubated for 20 hrs by agar well diffusion assay; format: functional
Escherichia coli = assay: Antimicrobial activity against Escherichia coli assessed as zone of inhibition incubated for 20 hrs by agar well diffusion assay; format: functional
[3] = test system: Mycolicibacterium smegmatis; assay: Antimicrobial activity against Mycobacterium smegmatis incubated for 30 to 32 hrs under shaking condition; format: functional
[4] = test system: Mycolicibacterium smegmatis; assay: Antimicrobial activity against Mycobacterium smegmatis incubated for 30 to 32 hrs under shaking condition relative to control; format: functional
Mycolicibacterium vaccae = assay: Antimicrobial activity against Mycobacterium vaccae incubated for 24 hrs by broth microdilution assay; format: functional
Mycobacterium leprae [5] = assay: Anti-leprotic activity against Mycobacterium leprae infected in 538 CBA mouse assessed as number of Mycobacterium leprae in paw pads at 2 mg/kg administrated via gastric tube 5 times a week and measured 7 months post infection; format: functional
[6] = test system: Mycolicibacterium fortuitum; assay: Antimicrobial activity against Mycobacterium fortuitum incubated for 24 hrs by broth microdilution assay; format: functional
[7] = test system: Mycolicibacterium smegmatis; assay: Antimicrobial activity against Mycobacterium smegmatis incubated for 24 hrs by broth microdilution assay; format: functional
Mycolicibacterium aurum = assay: Antimicrobial activity against Mycobacterium aurum incubated for 24 hrs by broth microdilution assay; format: functional
Mycobacterium leprae [8] = assay: Anti-leprotic activity against Mycobacterium leprae infected in 538 CBA mouse assessed as number of Mycobacterium leprae in paw pads at 6 mg/kg administrated via gastric tube 5 times a week and measured 7 months post infection; format: functional
[9] = test system: Mycolicibacterium smegmatis; assay: Antimycobacterial activity against DDS resistant Mycobacterium smegmatis ATCC 607 […]; format: functional
[10] = test system: Mycolicibacterium smegmatis; assay: Antimycobacterial activity against DDS sensitive Mycobacterium smegmatis ATCC 607 […]; format: functional
Mycobacterium leprae [11] = assay: Anti-leprotic activity against Mycobacterium leprae infected in BALB/c mouse assessed as time delay in bacterial multiplication in footpad at 0.01 g/100g of diet administered via feed starting 60 or 75 day post infection up to 90 days by Shepard's kinetic method; format: functional
Mycobacterium leprae [12] = assay: as §1, with “0.2” for “2”; format: functional
[13] = Drug concentration in rat blood at 400 mg/kg, sc administered as single dose; format: ADME, organism-based; conditions: in vivo
Rattus norvegicus = assay: Effect of metallo-protein haemoglobin in rat assessed as peak methemoglobin level at 400 mg/kg, sc administered as single dose; format: ADME, organism-based; conditions: in vivo
Plasmodium berghei = assay: Antimalarial activity against Plasmodium berghei infected in albino mouse assessed survival against infection at 400 mg/kg, sc administered as single dose; format: functional
[14] = Drug excretion in rat urine at 400 mg/kg, sc administered as single dose measured after 30 days; format: ADME, organism-based; conditions: read-out: Drug excretion
[15] = Half life in rat at 400 mg/kg, sc administered as single dose; format: ADME, organism-based; conditions: in vivo
Mycobacterium leprae [16] = assay: Anti-leprotic activity against Mycobacterium leprae infected in albino mouse assessed survival against infection at 400 mg/kg, sc administered 58 days post-infection and subsequent compound dosing at 200 mg/kg at 0.5, 1 or 2 months interval; format: functional
Mycobacterium leprae [17] = assay: Anti-leprotic activity against Mycobacterium leprae infected in CBA mouse assessed as number of Mycobacterium leprae in paw pads at 30 mg/kg administrated 5 times a week and measured 7.5 months post infection (reference value: 3.91 +/- 0.33 10^5); format: functional
Mycobacterium leprae [18] = assay: Anti-leprotic activity against Mycobacterium leprae infected in CBA mouse assessed as number of Mycobacterium leprae in paw pads at 10 mg/kg administrated 5 times a week and measured 7.5 months post infection (reference value: 3.91 +/- 0.33 10^5); format: functional
Monocyte [19] = assay: Antiinflammatory activity in human monocytes assessed as inhibition of LPS-induced TNFaplha production at 25 uM preincubated for 15 mins followed by LPS addition and measured after 4 hrs by ELISA relative to control; format: functional
Monocyte [20] = assay: Antiinflammatory activity in human monocytes assessed as inhibition of LPS-induced TNFaplha production at 50 uM preincubated for 15 mins followed by LPS addition and measured after 4 hrs by ELISA relative to control; format: functional
[21] = Cytotoxicity against LPS-induced human monocytes assessed as cell viability at 50 uM by tryphan blue staining based assay relative to control; parameters: species or system Monocyte; conditions: read-out: Activity
[22] = test system: Mycobacterium tuberculosis; assay: Antimycobacterial activity against Mycobacterium tuberculosis H37Rv by BACTEC radiometric growth assay; format: functional
Monocyte [23] = assay: Antiinflammatory activity in human monocytes assessed as inhibition of LPS-induced TNFaplha production at 5 uM preincubated for 15 mins followed by LPS addition and measured after 4 hrs by ELISA relative to control; format: functional
[24] = test system: Mycobacterium tuberculosis; assay: Antitubercular activity against Mycobacterium tuberculosis H37Rv ATCC 27294 assessed as inhibition of [3H]-thymidine incorporation relative to control; format: functional
[25] = Selectivity index, ratio of IC50 for African green monkey Vero cells to MIC for antitubercular activity against Mycobacterium tuberculosis H37Rv; format: toxicity; conditions: Vero cells, read-out: Selectivity Index
[26] = test system: Mycobacterium tuberculosis; assay: Antitubercular activity against Mycobacterium tuberculosis H37Rv ATCC 27294 assessed as growth inhibition at 6.25 ug/ml by microplate alamar blue assay relative to control; format: functional

## CCc1cc(C(N)=S)ccn1 [ETHIONAMIDE]
Mycobacterium leprae [1]
  inhibition at 2 µM: 77%
Mycobacterium leprae [2]
  inhibition at 20 µM: 97%

## C[C@@H](O)[C@H]1C(=N)N2C(C(=O)O)=C(SCCNC=N)C[C@H]12
Staphylococcus aureus
  diameter of the inhibition zone (DIZ): 25 mm
Escherichia coli
  diameter of the inhibition zone (DIZ): 27 mm

## CCn1cc(C(=O)N/N=C\c2cccc(O)c2)c(=O)c2cc(F)c(N3CCN(C)CC3)cc21
[3]
  MIC: 27.2 µM (≈ 12.3 µg/mL)
[4]
  Activity: >30%

## N#Cc1cc([N+](=O)[O-])cnc1SC(=S)N1CCCCCC1
Mycolicibacterium vaccae
  MIC: 0.4 µg/mL (≈ 1.24 µM)
Mycobacterium leprae [5]
  Activity: 6.64 ×10⁷ No_unit
[6]
  MIC: 0.8 µg/mL (≈ 2.48 µM)
[7]
  MIC: 1.56 µg/mL (≈ 4.84 µM)
Mycolicibacterium aurum
  MIC: 1.56 µg/mL (≈ 4.84 µM)
Mycobacterium leprae [8]
  Activity: 0.28 ×10⁷ No_unit

## COc1ccc(S(=O)(=O)c2ccc(N)cc2)cc1
[9]
  MIC: > 500 µg/mL
[10]
  MIC: 256 µg/mL (≈ 972 µM)
Mycobacterium leprae [11]
  Time: <10 days

## CC(C)/N=c1\cc2n(-c3ccc(Cl)cc3)c3ccccc3nc-2cc1Nc1ccc(Cl)cc1 [CLOFAZIMINE]
Mycobacterium leprae [1]
  inhibition at 2 µM: 94%
Mycobacterium leprae [12]
  inhibition at 0.2 µM: 70%

## N#Cc1cc([N+](=O)[O-])cnc1SC(=S)N1CCCC1
Mycolicibacterium vaccae
  MIC: 1.56 µg/mL (≈ 5.3 µM)
Mycobacterium leprae [5]
  Activity: 0.56 ×10⁷ No_unit
[6]
  MIC: 1.56 µg/mL (≈ 5.3 µM)
[7]
  MIC: 3.12 µg/mL (≈ 10.6 µM)
Mycolicibacterium aurum
  MIC: 1.56 µg/mL (≈ 5.3 µM)
Mycobacterium leprae [8]
  Activity: 0.28 ×10⁷ No_unit

## Clc1ccc(Nc2cc3nc4ccccc4n(-c4ccc(Cl)cc4)c-3c/c2=N/CCCN2CCCC2)cc1
Mycobacterium leprae [1]
  inhibition at 2 µM: 98%
Mycobacterium leprae [12]
  inhibition at 0.2 µM: 26%

## CC(=O)Nc1ccc(S(=O)(=O)c2ccc(N)cc2)cc1 [MONO-N-ACETYL DAPSONE]
[9]
  MIC: > 300 µg/mL
[13]
  Drug uptake: 1.3 µg/mL
Rattus norvegicus
  Activity: 1.2 g/dL
[10]
  MIC: 13.8 µg/mL (≈ 47.5 µM)
Plasmodium berghei
  Survival: 3.5 weeks
[14]
  dose excreted at 720 h: 50%
[15]
  half-life: 32 days
Mycobacterium leprae [11]
  Time: 60 days

## COc1ncnc(SC(=S)N2CCCC2)c1[N+](=O)[O-]
Mycolicibacterium vaccae
  MIC: 0.8 µg/mL (≈ 2.66 µM)
Mycobacterium leprae [5]
  Activity: 0.07 ×10⁷ No_unit
[6]
  MIC: 1.56 µg/mL (≈ 5.19 µM)
[7]
  MIC: 3.12 µg/mL (≈ 10.4 µM)
Mycolicibacterium aurum
  MIC: 1.56 µg/mL (≈ 5.19 µM)
Mycobacterium leprae [8]
  Activity: 0.029 ×10⁷ No_unit

## CC(=O)Nc1ccc(S(=O)(=O)c2ccc(NC(C)=O)c(C)c2)cc1
Mycobacterium leprae [16]
  Survival: >8 weeks
[13]
  Drug uptake: 0.7 µg/mL
Rattus norvegicus
  Activity: 1 g/dL
Plasmodium berghei
  Survival: 9 weeks
[14]
  dose excreted at 720 h: 31%
[15]
  half-life: 35 days

## CC(=O)Nc1ccc(S(=O)(=O)c2ccc(NC(C)=O)cc2)cc1 [ACEDAPSONE]
Mycobacterium leprae [16]
  Survival: >8 weeks
[13]
  Drug uptake: 0.2 µg/mL
Rattus norvegicus
  Activity: 0 g/dL
Plasmodium berghei
  Survival: 12 weeks
[14]
  dose excreted at 720 h: 7%
[15]
  half-life: > 200 days

## CN(C)C(=S)Sc1c(C#N)cc([N+](=O)[O-])cc1[N+](=O)[O-]
Mycobacterium leprae [17]
  Activity: 0.77 ×10⁵ No_unit
Mycobacterium leprae [18]
  Activity: 0.83 ×10⁵ No_unit

## O=C1c2cccc([N+](=O)[O-])c2C(=O)N1c1cn(-c2ccccc2)c(=O)[nH]c1=O
Monocyte [19]
  inhibition at 25 µM: < 10%
Monocyte [20]
  inhibition at 50 µM: < 10%
[21]
  viability at 50 µM: 90%

## CCN(CC)CCC/N=c1/cc2n(-c3ccc(Cl)cc3)c3ccccc3nc-2cc1Nc1ccc(Cl)cc1
Mycobacterium leprae [1]
  inhibition at 2 µM: 90%
Mycobacterium leprae [12]
  inhibition at 0.2 µM: 22%

## CCn1cc(C(=O)N/N=C\c2cc(OC)c(OC)c(OC)c2)c(=O)c2cc(F)c(N3CCN(C)CC3)cc21
[3]
  MIC: 81.2 µM (≈ 42.7 µg/mL)
[4]
  Activity: >30%

## NNC(=O)c1ccncc1 [ISONIAZID]
[22]
  MIC: 0.1 to 0.4 µg/mL (≈ 0.729 to 2.92 µM)
Mycobacterium leprae [2]
  inhibition at 20 µM: 29%

## O=C1c2ccccc2C(=O)N1c1cnc(O)nc1O
Monocyte [23]
  inhibition at 5 µM: < 10%
Monocyte [19]
  inhibition at 25 µM: < 10%
Monocyte [20]
  inhibition at 50 µM: < 10%
[21]
  viability at 50 µM: 91%

## CN(C)C(=S)Sc1c([N+](=O)[O-])cc([N+](=O)[O-])nc1C#N
Mycobacterium leprae [17]
  Activity: 1.83 ×10⁵ No_unit
Mycobacterium leprae [18]
  Activity: 2.13 ×10⁵ No_unit

## CC(=O)Nc1ccc(S(=O)(=O)c2ccc(/N=C/c3ccc(/C=N/c4ccc(S(=O)(=O)c5ccc(NC(C)=O)cc5)cc4)cc3)cc2)cc1
Mycobacterium leprae [16]
  Survival: >8 weeks
[13]
  Drug uptake: 0.4 µg/mL
Rattus norvegicus
  Activity: 0.2 g/dL
Plasmodium berghei
  Survival: 5 - 7 weeks
[14]
  dose excreted at 720 h: 40%
[15]
  half-life: 55 days

## CCn1cc(C(=O)N/N=C\c2ccc(C)cc2)c(=O)c2cc(F)c(N3CCN(C)CC3)cc21
[3]
  MIC: 42.5 µM (≈ 19.1 µg/mL)
[4]
  Activity: >30%

## C[C@@H](O)[C@H]1C(=O)N2C(C(=O)O)=C(SCCNC=N)C[C@H]12 [IMIPENEM ANHYDROUS]
Staphylococcus aureus
  diameter of the inhibition zone (DIZ): 31 mm
Escherichia coli
  diameter of the inhibition zone (DIZ): 35 mm

## c1ccc(Cn2cnc3c(-c4ccco4)ncnc32)cc1 [9-BENZYL-6-(FURAN-2-YL)-9H-PURINE]
[24]
  inhibition (INH): 59%
[25]
  selectivity ratio: 2.7
[26]
  inhibition at 6.25 µg/mL: > 90%

## CCn1cc(C(=O)N/N=C\c2c(Cl)cccc2Cl)c(=O)c2cc(F)c(N3CCN(C)CC3)cc21
[3]
  MIC: 27 µM (≈ 13.6 µg/mL)
[4]
  Activity: >30%

## Nc1ccc(S(=O)(=O)c2ccc(O)cc2)cc1
[9]
  MIC: 2010 µg/mL (≈ 8050 µM)
[10]
  MIC: 12 µg/mL (≈ 48.1 µM)
Mycobacterium leprae [11]
  Time: <10 days

## C[C@@H](O)[C@H]1C(=O)N2C(C(=O)O)=C(SCCNC=N)O[C@H]12
Staphylococcus aureus
  diameter of the inhibition zone (DIZ): 28 mm
Escherichia coli
  diameter of the inhibition zone (DIZ): 31 mm

## O=C1CCC(N2C(=O)c3ccccc3C2=O)C(=O)N1 (stereo not given) [THALIDOMIDE]
Monocyte [19]
  inhibition at 25 µM: < 10%
Monocyte [20]
  inhibition at 50 µM: 15%
[21]
  viability at 50 µM: 98%

## Clc1nc(-c2cccs2)c2ncn(Cc3ccccc3)c2n1
[25]
  selectivity ratio: > 6.4
[26]
  inhibition at 6.25 µg/mL: > 90%

## C[C@@H](O)[C@H]1C(=O)N2C(C(=O)O)=C(SCCNC=O)C[C@H]12
Staphylococcus aureus
  diameter of the inhibition zone (DIZ): 29 mm
Escherichia coli
  diameter of the inhibition zone (DIZ): 30 mm
